How the values were obtained:
Assay type in all cases: in vivo
[1] = system: Triticum aestivum (TRZAS); experiment: Post-emergence crop plant compatibility, greenhouse pot test; conditions: crop plant, post-emergence, 1.25 g/ha
Method: (§1) Seeds of monocotyledonous and dicotyledonous weeds and crop plants were placed in sandy loam in plastic or wood-fibre pots, covered with soil and cultivated in a greenhouse under controlled growth conditions. 2 to 3 weeks after sowing, the test plants were treated at the one-leaf stage. The compounds of the invention, formulated in the form of wettable powders (WP) or as emulsion concentrates (EC), were then sprayed onto the green parts of the plants as aqueous suspension or emulsion with addition of 0.5% additive at a water application rate of 600 l/ha (converted). After the test plants had been kept in the greenhouse under optimum growth conditions for about 3 weeks, the activity of the preparations was rated visually in comparison to untreated controls. For example, 100% activity=the plants have died, 0% activity=like control plants.
The observed effects on selected crop plants are reported here in comparison to the untreated controls (values in %).

[2] = system: Digitaria sanguinalis (DIGSA); experiment: Post-emergence herbicidal action, greenhouse pot test
Method: as §1

Bassia scoparia (KCHSC) = experiment: as above
Method: as §1

Veronica persica (VERPE) = experiment: as above
Method: as §1

[3] = system: Echinochloa crus-galli (ECHCG); experiment: as above
Method: as §1

Setaria viridis (SETVI) = experiment: as above
Method: as §1

Viola tricolor (VIOTR) = experiment: as above
Method: as §1

[4] = system: Polygonum convolvulus (POLCO); experiment: as above; conditions: 20 g/ha
Method: as §1

[5] = system: Pharbitis purpurea (PHBPU); experiment: as above
Method: as §1

[6] = system: Tripleurospermum inodorum (MATIN); experiment: as above; conditions: 20 g/ha
Method: as §1

[7] = system: Amaranthus retroflexus (AMARE); experiment: as above
Method: as §1

[8] = system: Abutilon theophrasti (ABUTH); experiment: as above
Method: as §1

With `Cn1c(C(F)(F)F)cc(=O)n(-c2cc(Oc3cc(F)ccc3OCC(=O)OCC3CC3)c(Br)cc2F)c1=O` [I.24-1] the “Post-emergence effect at 1.25 g/ha against TRZAS in %” value [1] was 20%, the “Post-emergence effect at 1.25 g/ha against DIGSA in %” value ([2]; 1.25 g/ha) was 80% and the “Post-emergence effect at 5 g/ha against DIGSA in %” value ([2]; 5 g/ha) was 100%. For the same compound, the “Post-emergence effect at 20 g/ha against DIGSA in %” value ([2]; 20 g/ha) was 100%, the “Post-emergence effect at 1.25 g/ha against KCHSC in %” value (Bassia scoparia (KCHSC); 1.25 g/ha) was 100% and the “Post-emergence effect at 5 g/ha against KCHSC in %” value (Bassia scoparia (KCHSC); 5 g/ha) was 100%. The “Post-emergence effect at 20 g/ha against KCHSC in %” value (Bassia scoparia (KCHSC); 20 g/ha) was 100%, the “Post-emergence effect at 5 g/ha against VERPE in %” value (Veronica persica (VERPE); 5 g/ha) was 100% and the “Post-emergence effect at 20 g/ha against VERPE in %” value (Veronica persica (VERPE); 20 g/ha) was 100%. For the same compound, the “Post-emergence effect at 5 g/ha against ECHCG in %” value ([3]; 5 g/ha) was 80%, the “Post-emergence effect at 20 g/ha against ECHCG in %” value ([3]; 20 g/ha) was 100% and the “Post-emergence effect at 1.25 g/ha against SETVI in %” value (Setaria viridis (SETVI); 1.25 g/ha) was 90%. The “Post-emergence effect at 5 g/ha against SETVI in %” value (Setaria viridis (SETVI); 5 g/ha) was 100%, the “Post-emergence effect at 20 g/ha against SETVI in %” value (Setaria viridis (SETVI); 20 g/ha) was 100% and the “Post-emergence effect at 5 g/ha against VIOTR in %” value (Viola tricolor (VIOTR); 5 g/ha) was 100%. For the same compound, the “Post-emergence effect at 20 g/ha against VIOTR in %” value (Viola tricolor (VIOTR); 20 g/ha) was 100%, the “Post-emergence effect at 20 g/ha against POLCO in %” value [4] was 100% and the “Post-emergence effect at 1.25 g/ha against PHBPU in %” value ([5]; 1.25 g/ha) was 80%. The “Post-emergence effect at 5 g/ha against PHBPU in %” value ([5]; 5 g/ha) was 100%, the “Post-emergence effect at 20 g/ha against PHBPU in %” value ([5]; 20 g/ha) was 100% and the “Post-emergence effect at 20 g/ha against MATIN in %” value [6] was 80%. For the same compound, the “Post-emergence effect at 1.25 g/ha against AMARE in %” value ([7]; 1.25 g/ha) was 100%, the “Post-emergence effect at 5 g/ha against AMARE in %” value ([7]; 5 g/ha) was 100% and the “Post-emergence effect at 20 g/ha against AMARE in %” value ([7]; 20 g/ha) was 100%. For the same compound, the “Post-emergence effect at 1.25 g/ha against ABUTH in %” value ([8]; 1.25 g/ha) was 100%, the “Post-emergence effect at 5 g/ha against ABUTH in %” value ([8]; 5 g/ha) was 100% and the “Post-emergence effect at 20 g/ha against ABUTH in %” value ([8]; 20 g/ha) was 100%.
With `Cn1c(C(F)(F)F)cc(=O)n(-c2cc(Oc3ccccc3OCC(=O)OC3CCCCC3)c(Cl)cc2F)c1=O` [a-29, reference compound] the “VERPE (efficacy in %)” value (Veronica persica (VERPE); Table B4 comparison, application rate 1.25 g/ha) was 90%.
`Cn1c(C(F)(F)F)cc(=O)n(-c2cc(Oc3ccccc3OCC(=O)OC3CCCCCC3)c(Cl)cc2F)c1=O` [reference compound] was tested, and the “ECHCG (efficacy in %)” value ([3]; Table B5 comparison, application rate 1.25 g/ha) was 80%.

From patent US20260138958A1, “SUBSTITUTED N-PHENYLURACILS AND SALTS THEREOF, AND USE THEREOF AS HERBICIDAL ACTIVE SUBSTANCES” (Bayer Aktiengesellschaft, priority 2022, published 2026)
